Reference: ChEMBL document CHEMBL5385918, “Aculeatiols A-G: Lovastatin Derivatives Extracted from Aspergillus aculeatus” (2024)
Calls of active or inactive are those of the source. The calls are words filed in the database; no cut-off is given here.

What was measured:
[1] = test system: HepG2; test: Anti-lipid accumulation activity in human HepG2 cells assessed as reduction in FFA-induced intracellular lipid level pretreated with compound for 48 hrs followed by FFA addition and measured after 48 hrs; assay type: functional, cell-based; conditions: time 96.0 hrs
[2] = test system: HepG2; test: Anti-lipid accumulation activity in human HepG2 cells assessed as reduction in FFA-induced intracellular lipid level at 10 uM pretreated with compound for 48 hrs followed by FFA addition and measured after 48 hrs; assay type: functional; design: scale not given: the % may be the effect or the level left; conditions: time 96 hrs
[3] = test system: HepG2; test: Anti-lipid accumulation activity in human HepG2 cells assessed as reduction in FFA-induced number of lipid droplets at 5 to 10 uM pretreated with compound for 24 hrs followed by FFA addition and measured after 48 hrs by oil red O staining based analysis; assay type: functional, cell-based; conditions: dose 5-10 µM, time 72.0 hrs
[4] = test system: HepG2; test: Anti-lipid accumulation activity in human HepG2 cells assessed as reduction in FFA-induced intracellular triglyceride content incubated for 24 hrs; assay type: functional, cell-based; conditions: dose 5-10 µM
[5] = test system: HepG2; test: Downregulation of FATP2 mRNA expression in FFA-induced human HepG2 cells at 5 to 10 uM pretreated with compound for 24 hrs followed by FFA-induction and measured after 24 hrs by qRT-PCR analysis; assay type: functional, cell-based; conditions: dose 5-10 µM, time 48.0 hrs
[6] = test system: HepG2; test: Downregulation of FATP5 mRNA expression in FFA-induced human HepG2 cells at 5 to 10 uM pretreated with compound for 24 hrs followed by FFA-induction and measured after 24 hrs by qRT-PCR analysis; assay type: functional, cell-based; conditions: dose 5-10 µM, time 48.0 hrs
[7] = test system: HepG2; test: Downregulation of FAS mRNA expression in FFA-induced human HepG2 cells at 5 to 10 uM pretreated with compound for 24 hrs followed by FFA-induction and measured after 24 hrs by qRT-PCR analysis; assay type: functional, cell-based; conditions: dose 5-10 µM, time 48.0 hrs
[8] = test system: HepG2; test: Downregulation of SCD1 mRNA expression in FFA-induced human HepG2 cells at 5 to 10 uM pretreated with compound for 24 hrs followed by FFA-induction and measured after 24 hrs by qRT-PCR analysis; assay type: functional, cell-based; conditions: dose 5-10 µM, time 48.0 hrs
[9] = test system: HepG2; test: Upregulation of PPARalpha mRNA expression in FFA-induced human HepG2 cells at 5 to 10 uM pretreated with compound for 24 hrs followed by FFA-induction and measured after 24 hrs by qRT-PCR analysis; assay type: functional, cell-based; conditions: dose 5-10 µM, time 48.0 hrs
[10] = test system: HepG2; test: Upregulation of ACOX1 mRNA expression in FFA-induced human HepG2 cells at 5 to 10 uM pretreated with compound for 24 hrs followed by FFA-induction and measured after 24 hrs by qRT-PCR analysis; assay type: functional, cell-based; conditions: dose 5-10 µM, time 48.0 hrs

C[C@@H]1C=C2C=C[C@]3(CO)OCCC(=O)[C@]3(C)[C@H]2[C@@H](O)C1
Activity [1]: Active

C[C@@H]1C=C2C=CC3OCCC(=O)[C@]3(C)[C@H]2[C@@H](O)[C@H]1O (some centres undefined)
Activity [1]: Active

Cc1ccc2c(c1)[C@H]1O[C@]3(O)CCO[C@](C)([C@H]1O)[C@]23C
Activity [1]: Active

C\C(=C/C=C/C=C/[C@H]1[C@@H](C)[C@H](O)[C@@H](O)[C@H]2C[C@@H](C)C[C@@H](C)[C@H]12)C(=O)O
Activity [1]: Active
Activity [2]: 50%
Activity [3]: Active
Activity [4]: Dose-Dependent Effect
Activity [5]: Active
Activity [6]: Active
Activity [7]: Active
Activity [8]: Active
Activity [9]: Active
Activity [10]: Active

C=C(C)CC(=O)O[C@@H]1C[C@H](C)C[C@@H]2CC(=O)[C@@H](C)[C@H]([C@@H]3O[C@H]3[C@H](O)[C@@H]3C=C(C)C(=O)O3)[C@H]21
Activity [1]: Active

C[C@H]1C[C@H](O)[C@H]2[C@@H](C=C[C@@](C)(O)[C@]2(C)C(=O)CCO)C1
Activity [1]: Active

C=C(C)CC(=O)O[C@@H]1C[C@H](C)C[C@@H]2CC(=O)[C@@H](C)[C@H]([C@@H]3O[C@H]3[C@@H](O)[C@H]3C=C(C)C(=O)O3)[C@H]21
Activity [1]: Active

C=C(C)CC(=O)O[C@@H]1C[C@H](C)C[C@@H]2CC(=O)[C@@H](C)[C@H]([C@@H]3O[C@H]3[C@H](O)[C@H]3C=C(C)C(=O)O3)[C@H]21
Activity [1]: Active

C[C@@H]1C=C2C=C[C@]3(C)OCCC(=O)[C@]3(C)[C@H]2[C@@H](O)C1
Activity [1]: Active

C/C(=C\[C@H](O)[C@H](O)[C@H](O)[C@H](O)[C@@H]1[C@@H]2[C@@H](CC(=O)[C@@H]1C)C[C@@H](C)C[C@H]2O)C(=O)O
Activity [1]: Active
